From patent US10053463B2 (Janssen Pharmaceutica NV, priority 2013, dated 2018)

How the values were obtained:
P2X7 [1] = target: T1, P2X7 (Homo sapiens (Human), UniProt Q99572); assay: P2X7 antagonism in human peripheral blood mononuclear cells (PBMCs), IL-1β release; assay type: cell-based; conditions: 10 μM compound; for remaining activity at 10 µM: P2X7, Table 3 (additional runs), read-out: PBMC 10 μM (% control)
Procedure, shortened: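 Ficoll-isolated human PBMCs primed with LPS (30 ng/ml) for 1 h, treated with compound for 30 min, then stimulated with 0.5 mM Bz-ATP for 1.5 h. Supernatant IL-1β measured by ELISA as % of LPS+Bz-ATP minus LPS-only release; IC50 from concentration–response of triplicate means.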

P2X7 [2] = target: T1, P2X7; assay: Radioligand binding, human P2X7-1321N1 cell membranes, tracer tritiated A-804598; conditions: Table 3 (additional runs)
Description: P2X7 Antagonism in Recombinant Human P2X7 Cells or Recombinant Rat P2X7 Cells: (a) Ca^2+ Flux and (b) Radioligand Binding
(b) Radioligand Binding: human or rat P2X7-1321N1 cells were collected and frozen @−80° C. On the day of the experiment, cell membrane preparations were made according to standard published methods. The total assay volume was 100 μl:10 μl compound (10×)+(b) 40 μl tracer (2.5×)+50 μl membrane (2×). The tracer used for the assay was tritiated A-804598. The compound can be prepared as described in the literature. (Donnelly-Roberts, D. Neuropharmacology 2008, 56 (1), 223-229.) Compounds, tracer and membranes were incubated for 1 hour @ 4° C. The assay was terminated by filtration (GF/B filters pre-soaked with 0.3% PEI) and washed with washing buffer (Tris-HCl 50 mM). The IC50 generated in the binding assay was corrected for tracer concentration and affinity of the tracer to derive at the affinity (K) of the test compounds. […] Data are analyzed and graphed on Graphpad Prism 5. For analysis, each concentration point is averaged from triplicate values and the averaged values are plotted on Graphpad Prism.

T1 sequence (Q99572 whole entry): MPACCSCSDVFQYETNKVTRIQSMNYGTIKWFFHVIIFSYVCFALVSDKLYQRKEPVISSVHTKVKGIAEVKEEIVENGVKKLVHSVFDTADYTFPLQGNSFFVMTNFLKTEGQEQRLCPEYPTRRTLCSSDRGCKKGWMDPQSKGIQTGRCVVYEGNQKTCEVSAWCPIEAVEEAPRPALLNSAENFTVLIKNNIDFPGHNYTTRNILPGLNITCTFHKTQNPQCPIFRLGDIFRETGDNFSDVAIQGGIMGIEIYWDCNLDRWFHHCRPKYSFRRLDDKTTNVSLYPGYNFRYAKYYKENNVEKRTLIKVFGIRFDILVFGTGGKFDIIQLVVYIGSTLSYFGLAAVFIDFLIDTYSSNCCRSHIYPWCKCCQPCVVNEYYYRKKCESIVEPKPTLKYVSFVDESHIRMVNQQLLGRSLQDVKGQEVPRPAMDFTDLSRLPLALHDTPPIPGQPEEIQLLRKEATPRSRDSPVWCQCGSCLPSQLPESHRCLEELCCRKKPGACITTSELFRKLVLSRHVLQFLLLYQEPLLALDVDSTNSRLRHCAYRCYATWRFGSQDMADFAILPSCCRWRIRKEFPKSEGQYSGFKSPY

Row | remaining activity at 10 µM (P2X7 [1]) | Ki (P2X7 [2]) | Compound | PBMC 10 μM (% control) (P2X7 [1]; Table 2, IL-1β release, LPS + 0.5 mM Bz-ATP)
1 | 8.4% |  | C[C@H]1Cn2c(nnc2-c2cnccn2)C(=O)N1Cc1ccccc1Cl [Example 80, (6S)-7-(2-Chlorobenzyl)-6-methyl-3-pyrazin-2-yl-6,7-dihydro[1,2,4]triazolo[4,3-a]pyrazin-8(5H)-one] | 
2 | 170% |  | C[C@H]1Cn2c(nnc2-c2cnccn2)C(=O)N1Cc1ccc(S(C)(=O)=O)cc1Cl [Example 81, (6S)-7-[2-Chloro-4-(methylsulfonyl)benzyl]-6-methyl-3-pyrazin-2-yl-6,7-dihydro[1,2,4]triazolo[4,3-a]pyrazin-8(5H)-one] | 
3 | 22.2% |  | C[C@H]1Cn2c(nnc2-c2cnccn2)C(=O)N1Cc1ccc(Cl)cc1S(C)(=O)=O [Example 82, (6S)-7-[4-Chloro-2-(methylsulfonyl)benzyl]-6-methyl-3-pyrazin-2-yl-6,7-dihydro[1,2,4]triazolo[4,3-a]pyrazin-8(5H)-one] | 
4 | 15.6% |  | C[C@H]1Cn2c(nnc2-c2cnccn2)C(=O)N1Cc1ccccc1OC(F)(F)F [Example 83, (6S)-6-Methyl-3-pyrazin-2-yl-7-[2-(trifluoromethoxy)benzyl]-6,7-dihydro[1,2,4]triazolo[4,3-a]pyrazin-8(5H)-one] | 
5 | 25.9% |  | C[C@H]1Cn2c(nnc2-c2cnccn2)C(=O)N1Cc1cc2c(cc1Cl)OCO2 [Example 84, (6S)-7-[(6-Chloro-1,3-benzodioxol-5-yl)methyl]-6-methyl-3-pyrazin-2-yl-6,7-dihydro[1,2,4]triazolo[4,3-a]pyrazin-8(5H)-one] | 
6 | 16.6% |  | Cc1c(CN2C(=O)c3nnc(-c4cnccn4)n3C[C@@H]2C)cccc1C(F)(F)F [Example 85, (6S)-6-Methyl-7-[2-methyl-3-(trifluoromethyl)benzyl]-3-pyrazin-2-yl-6,7-dihydro[1,2,4]triazolo[4,3-a]pyrazin-8(5H)-one] | 
7 | 28.3% |  | C[C@H]1Cn2c(nnc2-c2cnccn2)C(=O)N1Cc1c(Cl)cccc1Cl [Example 86, (6S)-7-(2,6-Dichlorobenzyl)-6-methyl-3-pyrazin-2-yl-6,7-dihydro[1,2,4]triazolo[4,3-a]pyrazin-8(5H)-one] | 
8 | 27% |  | Cc1cccc(C)c1CN1C(=O)c2nnc(-c3cnccn3)n2C[C@@H]1C [Example 87, (6S)-7-(2,6-Dimethylbenzyl)-6-methyl-3-pyrazin-2-yl-6,7-dihydro[1,2,4]triazolo[4,3-a]pyrazin-8(5H)-one] | 
9 | 29.9% |  | C[C@H]1Cn2c(nnc2-c2cnccn2)C(=O)N1Cc1cccc(C(F)(F)F)c1 [Example 88, (6S)-6-Methyl-3-pyrazin-2-yl-7-[3-(trifluoromethyl)benzyl]-6,7-dihydro[1,2,4]triazolo[4,3-a]pyrazin-8(5H)-one] | 
10 | 30.7% |  | C[C@H]1Cn2c(nnc2-c2cnccn2)C(=O)N1Cc1ccccc1[N+](=O)[O-] [Example 89, (6S)-6-Methyl-7-(2-nitrobenzyl)-3-pyrazin-2-yl-6,7-dihydro[1,2,4]triazolo[4,3-a]pyrazin-8(5H)-one] | 
11 | 24.4% |  | C[C@H]1Cn2c(nnc2-c2cnccn2)C(=O)N1Cc1cc([N+](=O)[O-])ccc1Cl [Example 90, (6S)-7-(2-Chloro-5-nitrobenzyl)-6-methyl-3-pyrazin-2-yl-6,7-dihydro[1,2,4]triazolo[4,3-a]pyrazin-8(5H)-one] | 
12 | 11.6% |  | C[C@H]1Cn2c(nnc2-c2cnccn2)C(=O)N1Cc1cc(N)ccc1Cl [Example 91, (6S)-7-(5-Amino-2-chlorobenzyl)-6-methyl-3-pyrazin-2-yl-6,7-dihydro[1,2,4]triazolo[4,3-a]pyrazin-8(5H)-one] | 
13 | -1% |  | CC(c1ccccc1)N1C(=O)c2nnc(-c3cnccn3)n2C[C@@H]1C (stereo partly drawn) [Example 92, (6S)-6-Methyl-7-(1-phenylethyl)-3-pyrazin-2-yl-6,7-dihydro[1,2,4]triazolo[4,3-a]pyrazin-8(5H)-one] | 
14 | 34.3% | 0.0079 µM | C[C@H]1Cn2c(-c3cnccn3)nnc2-c2nnc(-c3cccc(C(F)(F)F)c3Cl)n21 [Example 99, (5S)-3-[2-Chloro-3-(trifluoromethyl)phenyl]-5-methyl-8-pyrazin-2-yl-5,6-dihydrobis[1,2,4]triazolo[4,3-a:3′,4′-c]pyrazine] | 
15 | 17.2% | 0.02 µM | C[C@H]1Cn2c(-c3cnccn3)nnc2-c2nnc(-c3cccc(Cl)c3Cl)n21 [Example 100, (5S)-3-(2,3-Dichlorophenyl)-5-methyl-8-pyrazin-2-yl-5,6-dihydrobis[1,2,4]triazolo[4,3-a:3′,4′-c]pyrazine] | 
16 | 1.2% | 0.0398 µM | C[C@H]1Cn2c(-c3ccc(F)cc3)nnc2-c2nnc(-c3cccc(C(F)(F)F)c3Cl)n21 [Example 101, (5S)-3-[2-Chloro-3-(trifluoromethyl)phenyl]-8-(4-fluorophenyl)-5-methyl-5,6-dihydrobis[1,2,4]triazolo[4,3-a:3′,4′-c]pyrazine] | 
17 | 1.4% |  | C[C@H]1Cn2c(-c3ccc(F)cn3)nnc2-c2nnc(-c3cccc(C(F)(F)F)c3Cl)n21 [Example 102, (5S)-3-[2-Chloro-3-(trifluoromethyl)phenyl]-8-(5-fluoropyridin-2-yl)-5-methyl-5,6-dihydrobis[1,2,4]triazolo[4,3-a:3′,4′-c]pyrazine] | 
18 | 3.3% | 0.0224 µM | C[C@H]1Cn2c(-c3cc[nH]n3)nnc2-c2nnc(-c3cccc(C(F)(F)F)c3Cl)n21 [Example 103, (5S)-3-[2-Chloro-3-(trifluoromethyl)phenyl]-5-methyl-8-(1H-pyrazol-3-yl)-5,6-dihydrobis[1,2,4]triazolo[4,3-a:3′,4′-c]pyrazine] | 
19 | 4.3% |  | C[C@H]1Cn2c(-c3cocn3)nnc2-c2nnc(-c3cccc(C(F)(F)F)c3Cl)n21 [Example 104, (5S)-3-[2-Chloro-3-(trifluoromethyl)phenyl]-5-methyl-8-(1,3-oxazol-4-yl)-5,6-dihydrobis[1,2,4]triazolo[4,3-a:3′,4′-c]pyrazine] | 
20 | 0.2% | 0.004 µM | C[C@H]1Cn2c(-c3ncccn3)nnc2-c2nnc(-c3cccc(C(F)(F)F)c3Cl)n21 [Example 105, (5S)-3-[2-Chloro-3-(trifluoromethyl)phenyl]-5-methyl-8-pyrimidin-2-yl-5,6-dihydrobis[1,2,4]triazolo[4,3-a:3′,4′-c]pyrazine] | 
21 | 40.2% |  | C[C@H]1Cn2cnnc2-c2nnc(-c3cccc(C(F)(F)F)c3Cl)n21 [Example 107, (5S)-3-[2-Chloro-3-(trifluoromethyl)phenyl]-5-methyl-5,6-dihydrobis[1,2,4]triazolo[4,3-a:3′,4′-c]pyrazine] | 
22 | -0.5% |  | C[C@H]1Cn2c(-c3cccnn3)nnc2-c2nnc(-c3cccc(C(F)(F)F)c3Cl)n21 [Example 108, (5S)-3-[2-Chloro-3-(trifluoromethyl)phenyl]-5-methyl-8-pyridazin-3-yl-5,6-dihydrobis[1,2,4]triazolo[4,3-a:3′,4′-c]pyrazine] | 
23 | 4.4% |  | C[C@H]1Cn2c(-c3cnn(C)c3)nnc2-c2nnc(-c3cccc(C(F)(F)F)c3Cl)n21 [Example 114, (5S)-3-[2-Chloro-3-(trifluoromethyl)phenyl]-5-methyl-8-(1-methyl-1H-pyrazol-4-yl)-5,6-dihydrobis[1,2,4]triazolo[4,3-a:3′,4′-c]pyrazine] | 
24 | 6.2% |  | CCc1nnc2n1C[C@H](C)n1c(-c3cccc(C(F)(F)F)c3Cl)nnc1-2 [Example 116, (S)-3-[2-chloro-3-(trifluoromethyl)phenyl]-8-ethyl-5-methyl-5,6-dihydrobis[1,2,4]triazolo[4,3-a:3′,4′-c]pyrazine] | 
25 | 25.9% |  | C[C@H]1Cn2c(-c3cccc(C(F)(F)F)n3)nnc2-c2nnc(-c3cccc(C(F)(F)F)c3Cl)n21 [Example 117, (S)-3-[2-chloro-3-(trifluoromethyl)phenyl]-5-methyl-8-(6-(trifluoromethyl)pyridine-2-yl)-5,6-dihydrobis[1,2,4]triazolo[4,3-a:3′,4′-c]pyrazine] | 
26 | 9.5% |  | C[C@H]1Cn2c(-c3cccnc3)nnc2-c2nnc(-c3cccc(C(F)(F)F)c3Cl)n21 [Example 122, (S)-3-[2-chloro-3-(trifluoromethyl)phenyl]-5-methyl-8-(pyridin-3-yl)-5,6-dihydrobis[1,2,4]triazolo[4,3-a:3′,4′-c]pyrazine] | 
27 | 2.4% |  | Cc1cncc(-c2nnc3n2C[C@H](C)n2c(-c4cccc(C(F)(F)F)c4Cl)nnc2-3)c1 [Example 123, (S)-3-(2-chloro-3-(trifluoromethyl)phenyl)-5-methyl-8-(5-methylpyridin-3-yl)-5,6-dihydrobis([1,2,4]triazolo)[4,3-a:3′,4′-c]pyrazine] | 

Row | Compound | remaining activity at 10 µM (P2X7 [1]) | Ki (P2X7 [2]) | PBMC 10 μM (% control) (P2X7 [1]; Table 2, IL-1β release, LPS + 0.5 mM Bz-ATP)
28 | CC(c1cccc(C(F)(F)F)c1Cl)N1C(=O)c2nnc(-c3cnccn3)n2C[C@@H]1C (stereo partly shown) [Example 93] | 4.5% |  | 4.5 % control
